Test results as given in US7160685B2, “Diagnostic reagents for human cytomegalovirus and methods of use” (priority 1996, dated 2007).
Where two headings read alike, the source gives them in different places.

What was measured:
HLA A*0205 = HLA A*0205 (Homo sapiens, UniProt P04439, D140Y/D185E/D98H/E176V/E277Q/F33Y/G131W/G231S/I119L/I121R/I166T/I218V/L180W/L300P/L318F/N151K/N90K/P208A/P217A/Q67R/Q86G/Q94H/R138H/R169H/T345S)
Experimental: (§1) Twelve cell lines were subjected to chromium release assays in which they were pulsed with the 495 peptide (pp65495-503) nonamer, loaded with chromium-51, and incubated with two different HLA A*0201 restricted CTL which recognize the 495 peptide and HCMV. The specific cytotoxicity was calculated and is shown in tabular form below for the 1 μM and 1 nM concentrations of the 495 peptide.

HLA A*0211 = HLA A*0211 (Homo sapiens, UniProt P04439, D140Y/D185E/E176V/E277Q/G131W/G231S/I119V/I121R/I166T/I218V/L300P/L318F/N151K/N90K/P208A/P217A/Q86G/Q94H/R138H/R169H/T345S/T97I)
Experimental: as §1

HLA A*0202 = HLA A*0202 (Homo sapiens, UniProt P04439, D140Y/D185E/D98H/E176V/E277Q/G131W/G231S/I119L/I121R/I166T/I218V/L180W/L300P/L318F/N151K/N90K/P208A/P217A/Q67R/Q86G/Q94H/R138H/R169H/T345S)
Experimental: as §1

HLA A*0217 = HLA A*0217 (Homo sapiens, UniProt P04439, D140Y/D185E/D98H/E176V/E277Q/G131W/G231S/I119L/I121M/I166T/I218V/L300P/L318F/N151K/N90K/P208A/P217A/Q86G/Q94H/R138H/R169H/T345S/Y123F)
Experimental: as §1

HLA A*0204 = HLA A*0204 (Homo sapiens, UniProt P04439, D140Y/D185E/D98H/E176V/E277Q/G131W/G231S/I119V/I121M/I166T/I218V/L300P/L318F/N151K/N90K/P208A/P217A/Q86G/Q94H/R138H/R169H/T345S)
Experimental: as §1

HLA A*0210 = HLA A*0210 (Homo sapiens, UniProt P04439, D140Y/D185E/D98H/E176V/E277Q/F33Y/G231S/I119V/I121R/I166T/I218V/L300P/L318F/N151K/N90K/P208A/P217A/Q86G/Q94H/R138H/R169H/T345S/Y123F)
Experimental: as §1

HLA A*0207 = HLA A*0207 (Homo sapiens, UniProt P04439, D140Y/D185E/D98H/E176V/E277Q/G131W/G231S/I119V/I121R/I166T/I218V/L300P/L318F/N151K/N90K/P208A/P217A/Q86G/Q94H/R138H/R169H/T345S/Y123C)
Experimental: as §1

HLA A*0206 = HLA A*0206 (Homo sapiens, UniProt P04439, D140Y/D185E/D98H/E176V/E277Q/F33Y/G131W/G231S/I119V/I121R/I166T/I218V/L300P/L318F/N151K/N90K/P208A/P217A/Q86G/Q94H/R138H/R169H/T345S)
Experimental: as §1

495 peptide targets = conditions: after 14 weeks; 495 peptide + PADRE + IFA
HLA A*0209 = HLA A*0209 (Homo sapiens, UniProt P04439, A260E/D140Y/D185E/D98H/E176V/E277Q/G131W/G231S/I119V/I121R/I166T/I218V/L300P/L318F/N151K/N90K/P208A/P217A/Q86G/Q94H/R138H/R169H/T345S)
Experimental: as §1

CSCC[C@H](NC(=O)[C@@H]1CCCN1C(=O)[C@@H](NC(=O)[C@H](CC(C)C)NC(=O)[C@@H](N)CC(N)=O)C(C)C)C(=O)N[C@H](C(=O)N[C@@H](C)C(=O)N[C@H](C(=O)N[C@H](C(=O)O)C(C)C)[C@@H](C)O)C(C)C [SEQ ID NO:1]
specific cytotoxicity (HLA A*0205; A*0205, CTL 3-3F4, 1 nM): − (cytotoxicity less than 15%) | specific cytotoxicity (HLA A*0205; A*0205, CTL 3-3F4, 1 μM): + (cytotoxicity greater than 30%) | specific cytotoxicity (HLA A*0205; A*0205, CTL VB-57, 1 nM): + (cytotoxicity greater than 30%) | specific cytotoxicity (HLA A*0205; A*0205, CTL VB-57, 1 μM): + (cytotoxicity greater than 30%) | specific cytotoxicity (HLA A*0211; A*0211, CTL 3-3F4, 1 nM): − (cytotoxicity less than 15%) | specific cytotoxicity (HLA A*0211; A*0211, CTL 3-3F4, 1 μM): + (cytotoxicity greater than 30%) | specific cytotoxicity (HLA A*0211; A*0211, CTL VB-57, 1 μM): + (cytotoxicity greater than 30%) | specific cytotoxicity (HLA A*0202; A*0202, CTL 3-3F4, 1 nM): − (cytotoxicity less than 15%) | specific cytotoxicity (HLA A*0202; A*0202, CTL 3-3F4, 1 μM): + (cytotoxicity greater than 30%) | specific cytotoxicity (HLA A*0202; A*0202, CTL VB-57, 1 nM): − (cytotoxicity less than 15%) | specific cytotoxicity (HLA A*0202; A*0202, CTL VB-57, 1 μM): + (cytotoxicity greater than 30%) | specific cytotoxicity (HLA A*0217; A*0217, CTL 3-3F4, 1 nM): − (cytotoxicity less than 15%) | specific cytotoxicity (HLA A*0217; A*0217, CTL 3-3F4, 1 μM): + (cytotoxicity greater than 30%) | specific cytotoxicity (HLA A*0217; A*0217, CTL VB-57, 1 nM): + (cytotoxicity greater than 30%) | specific cytotoxicity (HLA A*0217; A*0217, CTL VB-57, 1 μM): + (cytotoxicity greater than 30%) | specific cytotoxicity (HLA A*0204; A*0204, CTL 3-3F4, 1 nM): + (cytotoxicity greater than 30%) | specific cytotoxicity (HLA A*0204; A*0204, CTL 3-3F4, 1 μM): + (cytotoxicity greater than 30%) | specific cytotoxicity (HLA A*0204; A*0204, CTL VB-57, 1 nM): + (cytotoxicity greater than 30%) | specific cytotoxicity (HLA A*0204; A*0204, CTL VB-57, 1 μM): + (cytotoxicity greater than 30%) | specific cytotoxicity (HLA A*0210; A*0210, CTL 3-3F4, 1 nM): + (cytotoxicity greater than 30%) | specific cytotoxicity (HLA A*0210; A*0210, CTL 3-3F4, 1 μM): + (cytotoxicity greater than 30%) | specific cytotoxicity (HLA A*0210; A*0210, CTL VB-57, 1 nM): + (cytotoxicity greater than 30%) | specific cytotoxicity (HLA A*0210; A*0210, CTL VB-57, 1 μM): + (cytotoxicity greater than 30%) | specific cytotoxicity (HLA A*0207; A*0207, CTL 3-3F4, 1 nM): + (cytotoxicity greater than 30%) | specific cytotoxicity (HLA A*0207; A*0207, CTL 3-3F4, 1 μM): + (cytotoxicity greater than 30%) | specific cytotoxicity (HLA A*0207; A*0207, CTL VB-57, 1 nM): + (cytotoxicity greater than 30%) | specific cytotoxicity (HLA A*0207; A*0207, CTL VB-57, 1 μM): + (cytotoxicity greater than 30%) | specific cytotoxicity (HLA A*0206; A*0206, CTL 3-3F4, 1 nM): + (cytotoxicity greater than 30%) | specific cytotoxicity (HLA A*0206; A*0206, CTL 3-3F4, 1 μM): + (cytotoxicity greater than 30%) | specific cytotoxicity (HLA A*0206; A*0206, CTL VB-57, 1 nM): + (cytotoxicity greater than 30%) | specific cytotoxicity (HLA A*0206; A*0206, CTL VB-57, 1 μM): + (cytotoxicity greater than 30%) | Percent specific cytotoxicity (cytotoxicity of 495 peptide targets—cytotoxicity of p53 targets) (495 peptide targets): 40% | specific cytotoxicity (HLA A*0209; A*0209, CTL 3-3F4, 1 nM): − (cytotoxicity less than 15%) | specific cytotoxicity (HLA A*0209; A*0209, CTL 3-3F4, 1 μM): + (cytotoxicity greater than 30%) | specific cytotoxicity (HLA A*0209; A*0209, CTL VB-57, 1 nM): − (cytotoxicity less than 15%) | specific cytotoxicity (HLA A*0209; A*0209, CTL VB-57, 1 μM): + (cytotoxicity greater than 30%)
